From PubChem BioAssay AID1259408 (Genetic Toxicology Data Bank (GENE-TOX), 2018)
Calls of active or inactive are those of the source. How the calls were made is not given here.

Tested on: GENE-TOX genotoxicity assays, various organisms and cells
Assay: GENE-TOX mutagenicity studies
[1] = Species/Cell Type: Human, Assay Type: Sister-chromatid exchange (SCE) in vitro, Assay Code: SC1+D, Dose Response: With dose response, Evaluation Type: Evaluation B (Post-1980)
[2] = Species/Cell Type: Escherichia coli polA (W3119 vs P3478), Assay Type: Rec-assay, DNA effects (bacterial DNA repair), Assay Code: RE1+, Evaluation Type: Evaluation A (Pre-1980)
[3] = Species/Cell Type: Bacillus subtilis (H17 vs M45), Assay Type: Rec-assay, spot test, DNA effects (bacterial DNA repair), Assay Code: REWT, Evaluation Type: Evaluation A (Pre-1980)
[4] = Species/Cell Type: Drosophila melanogaster, Assay Type: Sex-linked recessive lethal gene mutation, Assay Code: SRL+, Evaluation Type: Evaluation A (Pre-1980)
[5] = Species/Cell Type: Salmonella typhimurium (one or more of the five standard strains: TA98, TA100, TA1535, TA1537, and TA1538), Assay Type: Histidine reverse gene mutation, Ames assay, Assay Code: SAL-, Evaluation Type: Evaluation A (Pre-1980)
[6] = Species/Cell Type: Salmonella typhimurium (one or more of the five standard strains: TA98, TA100, TA1535, TA1537, and TA1538), Assay Type: Histidine reverse gene mutation, Ames assay, Assay Code: SALT, Evaluation Type: Evaluation A (Pre-1980)
[7] = Species/Cell Type: Salmonella typhimurium (one or more of the five standard strains: TA98, TA100, TA1535, TA1537, and TA1538), Assay Type: Histidine reverse gene mutation, Ames assay, Assay Code: SAL+, Evaluation Type: Evaluation A (Pre-1980)
[8] = Species/Cell Type: Nonhuman, Assay Type: Sister-chromatid exchange (SCE) in vitro, Assay Code: SC2T, Evaluation Type: Evaluation B (Post-1980)
[9] = Species/Cell Type: Salmonella typhimurium (one or more of the five standard strains: TA98, TA100, TA1535, TA1537, and TA1538), Assay Type: Histidine reverse gene mutation, Ames assay, Assay Code: SAL+*, Activation: With metabolic activation, Evaluation Type: Evaluation A (Pre-1980)
[10] = Species/Cell Type: Human diploid fibroblasts, Assay Type: Unscheduled DNA synthesis (UDS) in vitro, DNA effects, Assay Code: UDH-, Evaluation Type: Evaluation A (Pre-1980)

In the case of `CC(=O)O[C@]1(C(C)=O)CC[C@H]2[C@@H]3C[C@H](C)C4=CC(=O)CC[C@]4(C)[C@H]3CC[C@@]21C`, the mutagenic call [1] is reported as “active; positive”, the mutagenic call (Species/Cell Type: Human, Sex: Male, Assay Type: Sperm morphology, Assay Code: SPH+, Evaluation Type: Evaluation A (Pre-1980)) is reported as “active; positive” and the mutagenic call (Species/Cell Type: Nonhuman, Assay Type: Sister-chromatid exchange (SCE) in vivo, Assay Code: SC3+, Evaluation Type: Evaluation B (Post-1980)) is reported as “active; positive”.
`CCN(CC)CCCC(C)Nc1ccnc2cc(Cl)ccc12` (stereo not drawn) was tested, and the mutagenic call [2] was “active; positive” and the mutagenic call (Species/Cell Type: Mammalian cell culture, nonhuman, Assay Type: Micronucleus test in vitro, chromosome aberrations, Assay Code: MN&+, Evaluation Type: Evaluation A (Pre-1980)) was “active; positive”.
For `CNC(=O)Oc1ccccc1OC(C)C`, the mutagenic call [3] was “no conclusion”, the mutagenic call (Species/Cell Type: Bacillus subtilis (H17 vs M45T), Assay Type: Rec-assay, spot test, DNA effects (bacterial DNA repair), Assay Code: REX-, Evaluation Type: Evaluation A (Pre-1980)) was “inactive; negative” and the mutagenic call (Species/Cell Type: Escherichia coli WP2, Assay Type: Tryptophan reverse gene mutation, Assay Code: WP2-, Evaluation Type: Evaluation A (Pre-1980)) was “inactive; negative”. For the same compound, the mutagenic call (Species/Cell Type: Saccharomyces cerevisiae, Assay Type: Mitotic recombination or gene conversion, Assay Code: YEC-, Evaluation Type: Evaluation A (Pre-1980)) was “inactive; negative”.
With `CN(C)CC/C=C1/c2ccccc2Sc2ccc(Cl)cc21` the mutagenic call (Species/Cell Type: Nonhuman, Assay Type: Sister-chromatid exchange (SCE) in vitro, Assay Code: SC2+D, Dose Response: With dose response, Evaluation Type: Evaluation A (Pre-1980)) was “active; positive”.
With `COC(C)C(O)(C(=O)OCC1=CC[N+]2([O-])CC[C@H](O)[C@H]12)C(C)C` (stereo partly drawn) the mutagenic call [4] was “active; positive”.
`CC(=O)OCC1=C(C(=O)O)N2C(=O)[C@@H](NC(=O)Cc3cccs3)[C@H]2SC1` was tested, and the mutagenic call (Species/Cell Type: Escherichia coli polA (W3119 vs P3478), Assay Type: Rec-assay, DNA effects (bacterial DNA repair), Assay Code: RE1-, Evaluation Type: Evaluation A (Pre-1980)) was “inactive; negative”.
`Nc1c(Cl)cc(-c2cc(Cl)c(N)c(Cl)c2)cc1Cl` was tested, and the mutagenic call (Species/Cell Type: Human diploid fibroblasts, Assay Type: Unscheduled DNA synthesis (UDS) in vitro, DNA effects, Assay Code: UDH+*, Activation: With metabolic activation, Evaluation Type: Evaluation A (Pre-1980)) was “active; positive”.
`O=C(O)c1ccccc1O` was tested, and the mutagenic call (Species/Cell Type: Saccharomyces cerevisiae, Assay Type: Reverse gene mutation, Assay Code: YER+, Evaluation Type: Evaluation A (Pre-1980)) was “active; positive” and the mutagenic call [5] was “inactive; negative”.
In the case of `CN(C)CCC=C1c2ccccc2C=Cc2ccccc21`, the mutagenic call [6] is reported as “no conclusion”.
With `Nc1cccc(Cl)c1` the mutagenic call (Species/Cell Type: Mouse, Sex: Male, Assay Type: Sperm morphology, Assay Code: SPI-, Evaluation Type: Evaluation A (Pre-1980)) was “inactive; negative”.
For `CCC(=O)C(CC(C)N(C)C)(c1ccccc1)c1ccccc1` (stereo not drawn), the mutagenic call (Species/Cell Type: Drosophila melanogaster, Assay Type: Sex-linked recessive lethal gene mutation, Assay Code: SRL-, Evaluation Type: Evaluation A (Pre-1980)) was “inactive; negative”, the mutagenic call (Species/Cell Type: Drosophila melanogaster, Sex: Male, Assay Type: Heritable translocation test, chromosome aberrations, Assay Code: DHT-, Evaluation Type: Evaluation A (Pre-1980)) was “inactive; negative” and the mutagenic call (Species/Cell Type: Human, Sex: Male, Assay Type: Sperm morphology, Assay Code: SPHT, Evaluation Type: Evaluation A (Pre-1980)) was “no conclusion”.
`C[CH2][Hg][N](c1ccccc1)S(=O)(=O)c1ccc(C)cc1` was tested, and the mutagenic call [4] was “active; positive”.
With `O=[N+]([O-])c1ccc(/C=C/c2nccn2Cc2ccccc2)o1` the mutagenic call (Species/Cell Type: Neurospora crassa, Assay Type: Reverse gene mutation, Assay Code: NER+, Evaluation Type: Evaluation A (Pre-1980)) was “active; positive”.
For `O=NN1CCC(=O)NC1=O`, the mutagenic call [7] was “active; positive”.
In the case of `CC1CCCCN1CCNc1ccc(CO)c2sc3ccccc3c(=O)c12` (stereo not drawn), the mutagenic call (Species/Cell Type: Mouse lymphoma (L5178Y) cells, Assay Type: Forward gene mutation at the thymidine kinase (TK) locus, chromosome aberrations, Assay Code: L51+, Evaluation Type: Evaluation A (Pre-1980)) is reported as “active; positive”.
With `O=C(O)CS` the mutagenic call (Species/Cell Type: Mammalian polychromatic erythrocytes, Assay Type: Micronucleus test, chromosome aberrations, Assay Code: MNTT, Evaluation Type: Evaluation B (Post-1980)) was “no conclusion”.
`Cc1cc(C)cc(OC(=O)N(C)N=O)c1` was tested, and the mutagenic call (Species/Cell Type: Bacillus subtilis (H17 vs M45T), Assay Type: Rec-assay, spot test, DNA effects (bacterial DNA repair), Assay Code: REX+, Evaluation Type: Evaluation A (Pre-1980)) was “active; positive” and the mutagenic call (Species/Cell Type: Escherichia coli WP2, Assay Type: Tryptophan reverse gene mutation, Assay Code: WP2+, Evaluation Type: Evaluation A (Pre-1980)) was “active; positive”.
With `Cc1ccc(N=Nc2c(O)c(C(=O)O)cc3ccccc23)c(S(=O)(=O)O)c1` the mutagenic call [6] was “no conclusion”.
In the case of `C=CCCCCCC=CCC#CC#CC=CC`, the mutagenic call [8] is reported as “no conclusion”.
In the case of `CCCCN(CC(C)=O)N=O`, the mutagenic call [9] is reported as “active; positive”.
In the case of `CC(=O)OC[C@H]1O[C@@H](Oc2ccc3c(c2O)C(=O)c2ccccc2C3=O)[C@H](OC(C)=O)[C@@H](OC(C)=O)[C@@H]1OC(C)=O`, the mutagenic call [6] is reported as “no conclusion”.
With `CC[N+](=O)[O-]` the mutagenic call (Species/Cell Type: Mammalian polychromatic erythrocytes, Assay Type: Micronucleus test, chromosome aberrations, Assay Code: MNTT, Evaluation Type: Evaluation A (Pre-1980)) was “no conclusion”.
For `CCOP(=S)(OCC)Oc1nc(Cl)c(Cl)cc1Cl`, the mutagenic call (Species/Cell Type: Drosophila melanogaster, Assay Type: Sex-linked recessive lethal gene mutation, Assay Code: SRLT, Evaluation Type: Evaluation A (Pre-1980)) was “no conclusion”, the mutagenic call [2] was “active; positive” and the mutagenic call [10] was “inactive; negative”. The mutagenic call [1] was “active; positive”, the mutagenic call [8] was “no conclusion” and the mutagenic call (Species/Cell Type: Nonhuman, Assay Type: Sister-chromatid exchange (SCE) in vivo, Assay Code: SC3-, Evaluation Type: Evaluation B (Post-1980)) was “inactive; negative”. For the same compound, the mutagenic call (Species/Cell Type: Saccharomyces cerevisiae, Assay Type: Mitotic recombination or gene conversion, Assay Code: YEH-, Evaluation Type: Evaluation A (Pre-1980)) was “inactive; negative” and the mutagenic call [6] was “no conclusion”.
For `CCCN(CCC)C(=O)SCC`, the mutagenic call (Species/Cell Type: Neurospora crassa, Assay Type: Aneuploidy, chromosome aberrations, Assay Code: NEN-, Evaluation Type: Evaluation A (Pre-1980)) was “inactive; negative” and the mutagenic call (Species/Cell Type: Zea mays (corn), Assay Type: Gene mutation, Assay Code: ZEM-, Evaluation Type: Evaluation A (Pre-1980)) was “inactive; negative”.
For `CCCCNC(=O)OCC`, the call (Species/Cell Type: Nonhuman, Assay Type: In vivo carcinogenicity studies, Assay Code: CCGT, Evaluation Type: Evaluation A (Pre-1980)) was “no conclusion” and the mutagenic call (Species/Cell Type: Nonhuman, Assay Type: Sister-chromatid exchange (SCE) in vitro, Assay Code: SC2-, Evaluation Type: Evaluation A (Pre-1980)) was “inactive; negative”.
With `Nc1ccc(N=Nc2ccc(S(=O)(=O)O)cc2)c(N)c1` the mutagenic call [9] was “active; positive”.
With `CCOc1ccccc1C(N)=O` the mutagenic call (Species/Cell Type: Human, Assay Type: Sister-chromatid exchange (SCE) in vitro, Assay Code: SC1+, Evaluation Type: Evaluation B (Post-1980)) was “active; positive”.
With `CCOC(=O)N(OC(C)=O)C(C)=O` the mutagenic call [4] was “active; positive” and the mutagenic call (Species/Cell Type: Drosophila melanogaster, Sex: Male, Assay Type: Heritable translocation test, chromosome aberrations, Assay Code: DHTT, Evaluation Type: Evaluation A (Pre-1980)) was “no conclusion”.
For `CN(N=O)C(=O)c1ccccc1`, the mutagenic call [7] was “active; positive”.
For `COP(=O)(OC)O/C(C)=C/C(=O)OC(C)c1ccccc1` (stereo not drawn), the mutagenic call [3] was “no conclusion”, the mutagenic call (Species/Cell Type: Escherichia coli WP2 UVRA, Assay Type: Tryptophan reverse gene mutation, Assay Code: WPU-*, Activation: With metabolic activation, Evaluation Type: Evaluation A (Pre-1980)) was “inactive; negative” and the mutagenic call (Species/Cell Type: Escherichia coli polA (W3119 vs P3478), Assay Type: Rec-assay, DNA effects (bacterial DNA repair), Assay Code: RE1T, Evaluation Type: Evaluation A (Pre-1980)) was “no conclusion”. The mutagenic call [10] was “inactive; negative”, the mutagenic call (Species/Cell Type: Saccharomyces cerevisiae, Assay Type: Mitotic recombination or gene conversion, Assay Code: YEH+, Evaluation Type: Evaluation A (Pre-1980)) was “active; positive” and the mutagenic call [5] was “inactive; negative”.
`OCc1ccc(-c2ccccc2)cc1` was tested, and the mutagenic call (Species/Cell Type: Chinese hamster ovary (CHO) cells, Assay Type: Forward gene mutation at the HPRT locus, Assay Code: CHOT, Evaluation Type: Evaluation B (Post-1980)) was “no conclusion” and the mutagenic call (Species/Cell Type: Mammalian polychromatic erythrocytes, Assay Type: Micronucleus test, chromosome aberrations, Assay Code: MNT+U, Dose Response: Unconfirmed positive response, Evaluation Type: Evaluation B (Post-1980)) was “active; positive”.
With `CN(CCCC(=O)O)N=O` the mutagenic call [6] was “no conclusion”.
`O=C(CNC(=O)c1ccccc1)NO` was tested, and the mutagenic call [7] was “active; positive”.
`Cc1cc2ccccc2c2ccc3c(F)cccc3c12` was tested, and the mutagenic call [6] was “no conclusion”.
With `CC(C)(c1ccc(OCC2CO2)cc1)c1ccc(OCC2CO2)cc1` (stereo not drawn) the mutagenic call [9] was “active; positive”.
With `O=S(=O)(O)c1cccc(Nc2nc(Nc3ccc(/C=C/c4ccc(Nc5nc(Nc6cccc(S(=O)(=O)O)c6)nc(N(CCO)CCO)n5)cc4S(=O)(=O)O)c(S(=O)(=O)O)c3)nc(N(CCO)CCO)n2)c1` the mutagenic call (Species/Cell Type: Nonhuman, Assay Type: Sister-chromatid exchange (SCE) in vitro, Assay Code: SC2T, Evaluation Type: Evaluation A (Pre-1980)) was “no conclusion”.
For `Cc1cccc(C)c1O`, the mutagenic call (Species/Cell Type: Human lymphocytes, Assay Type: Sister-chromatid exchange (SCE) in vitro, Assay Code: SCLT, Evaluation Type: Evaluation B (Post-1980)) was “no conclusion”.
